Results from article PMC12186298, “Phase 1 clinical trial of eneboparatide, a novel PTH receptor 1 agonist” (Endocrine Connections, 2025).
Peptide text beside a SMILES is read from it.

How the values were obtained:
[1] = Plasma pharmacokinetics, single ascending dose (Part A); type: in vivo, human; settings: for AUC(0–∞) / Cmax / Tmax: Part A SAD; for Cmax: immunoaffinity LC-MS/MS, mean ± SD
Protocol: (§1) Seven sequential cohorts were included in Part A. The first cohort was single-blind and included four subjects, of which three subjects were randomized to receive 5 μg eneboparatide and one subject was randomized to receive placebo. […] Subjects in Part A were admitted to the phase 1 study centre on day 1 and received the study drug at the clinical site on day 1 as a single, subcutaneous abdominal injection in the morning. They were discharged on day 4 and were asked to return for a follow-up (FU) visit on day 5–8.
(§2) Plasma samples were collected pre-dose and at scheduled time points up to 6 h post-dose on day 1 (Parts A and B) and day 14 (Part B). The analysis of eneboparatide in plasma samples was performed at QPS (The Netherlands) using a hybrid immunoaffinity liquid chromatography–mass spectrometry/mass spectrometry (LC-MS/MS) method, with a validated lower limit of quantification (LLOQ) of 50 pg/mL.

[2] = Plasma pharmacokinetics, multiple ascending dose (Part B); type: in vivo, human; settings: for AUC(0–∞) / Cmax / Tmax / AUC(0-inf): Part B MAD; for Cmax: LC-MS/MS, mean ± SD
Protocol: as §2

[3] = test system: healthy subjects; test: Safety and tolerability, adverse events, Part A SAD; type: in vivo, human
Protocol: as §1

[4] = test system: animal models of HP; settings: cited from earlier work
[5] = test system: patients with cHP; design: method as in PMID 38449442; settings: 3 months; cited from earlier work

## CC[C@H](C)[C@H](NC(=O)[C@H](CCC(=O)O)NC(=O)[C@H](C)NC(=O)[C@@H](NC(=O)[C@H](Cc1c[nH]cn1)NC(=O)[C@@H](NC(=O)[C@H](CCC(=O)O)NC(=O)[C@H](C)NC(=O)[C@@H](NC(=O)[C@H](CC(C)C)NC(=O)[C@H](CCCCN)NC(=O)[C@H](Cc1c[nH]cn1)NC(=O)[C@H](CC(C)C)NC(=O)[C@H](Cc1ccccc1)NC(=O)[C@H](C)NC(=O)[C@H](CCCNC(=N)N)NC(=O)[C@H](CCCNC(=N)N)NC(=O)[C@H](CCCNC(=N)N)NC(=O)[C@H](C)NC(=O)[C@H](CC(=O)O)NC(=O)[C@H](CCC(N)=O)NC(=O)[C@@H](NC(=O)[C@H](Cc1c[nH]c2ccccc12)NC(=O)[C@H](CCCCN)NC(=O)[C@H](C)NC(=O)[C@H](CCCNC(=N)N)NC(=O)[C@H](CCC(N)=O)NC(=O)[C@H](Cc1c[nH]cn1)NC(=O)[C@H](CCSC)NC(=O)[C@H](CC(C)C)NC(=O)[C@H](CCC(N)=O)NC(=O)[C@@H](NC(=O)[C@H](CCC(=O)O)NC(=O)[C@H](C)NC(=O)[C@@H](NC(=O)[C@H](C)N)C(C)C)[C@@H](C)CC)[C@@H](C)CC)[C@@H](C)CC)[C@@H](C)CC)[C@@H](C)O)C(=O)O [eneboparatide] (H-AVAEIQLMHQRAKWIQDARRRAFLHKLIAEIHTAEI-OH; N-terminus and C-terminus assumed)
[1]; single sc 5 μg, n = 2, mean ± SD
  AUC(0–∞): 0.399 ± 0.032 ng·h/mL
[1]; single sc 5 μg, n = 2, plasma
  Cmax: 6.82 ± 2.19 ng/mL
[1]; single sc 10 μg, n = 4, mean ± SD
  AUC(0–∞): 5.20 ± 3.38 ng·h/mL
[1]; single sc 10 μg, n = 4, plasma
  Cmax: 11.4 ± 4.32 ng/mL
[1]; single sc 20 μg, n = 6, mean ± SD
  AUC(0–∞): 9.55 ± 4.12 ng·h/mL
[1]; single sc 20 μg, n = 6, plasma
  Cmax: 24.1 ± 8.18 ng/mL
[1]; single sc 40 μg, n = 2, mean ± SD
  AUC(0–∞): 10.4 ± 13.4 (n = 2) ng·h/mL
[1]; single sc 40 μg, n = 3, plasma
  Cmax: 26.3 ± 4.79 ng/mL
[1]; single sc 60 μg, n = 6, mean ± SD
  AUC(0–∞): 16.8 ± 14.7 ng·h/mL
[1]; single sc 60 μg, n = 6, plasma
  Cmax: 28.5 ± 10.8 ng/mL
[1]; single sc 90 μg, n = 6, mean ± SD
  AUC(0–∞): 31.7 ± 12.5 ng·h/mL
[1]; single sc 90 μg, n = 6, plasma
  Cmax: 37.5 ± 11.6 ng/mL
[1]; single sc 120 μg, n = 6, mean ± SD
  AUC(0–∞): 26.1 ± 16.4 ng·h/mL
[1]; single sc 120 μg, n = 6, plasma
  Cmax: 57.4 ± 28.7 ng/mL
[1]; Parts A and B, sc, all doses
  median time to maximum plasma concentration: 5 to 20 min
[1]; SAD, single sc 10 to 120 μg, LLOQ 50 pg/mL
  detectability of eneboparatide in the circulation after administration: almost undetectable beyond 2 h after administration
[1]; human, plasma, 5 ug, single sc 5 μg, n = 2, median
  Tmax: 15 min
[1]; human, plasma, 10 ug, single sc 10 μg, n = 4, median
  Tmax: 13.2 min
[1]; human, plasma, 20 ug, single sc 20 μg, n = 6, median
  Tmax: 6 min
[1]; human, plasma, 40 ug, single sc 40 μg, n = 3, median
  Tmax: 4.8 min
[1]; human, plasma, 60 ug, single sc 60 μg, n = 6, median
  Tmax: 10.2 min
[1]; human, plasma, 90 ug, single sc 90 μg, n = 6, median
  Tmax: 19.8 min
[1]; human, plasma, 120 ug, single sc 120 μg, n = 6, median
  Tmax: 19.8 min
[1]; human, plasma, normal subjects, sc, read-out: circulating half-life
  half-life: < 120 min
[2]; 10 μg/day sc, Day 1, n = 4, mean ± SD
  AUC(0–∞): 3.26 ± 3.20 ng·h/mL
[2]; 10 μg/day sc, Day 1, n = 4, plasma
  Cmax: 20.6 ± 3.43 ng/mL
[2]; 10 μg/day sc, Day 14, n = 4, plasma
  Cmax: 18.4 ± 5.37 ng/mL
[2]; 20 μg/day sc, Day 1, n = 8, mean ± SD
  AUC(0–∞): 7.69 ± 5.52 ng·h/mL
[2]; 20 μg/day sc, Day 1, n = 8, plasma
  Cmax: 19.6 ± 5.68 ng/mL
[2]; 40 μg/day sc, Day 1, n = 8, mean ± SD
  AUC(0–∞): 15.8 ± 11.5 ng·h/mL
[2]; 40 μg/day sc, Day 1, n = 8, plasma
  Cmax: 23.8 ± 8.97 ng/mL
[2]; 40 μg/day sc, Day 14, n = 8, median
  Tmax: 10.2 min
[2]; 60 μg/day sc, Day 1, n = 8, mean ± SD
  AUC(0–∞): 43.3 ± 18.1 ng·h/mL
[2]; 60 μg/day sc, Day 1, n = 8, plasma
  Cmax: 42.9 ± 30.3 ng/mL
[2]; 60 μg/day sc, Day 14, n = 7, median
  Tmax: 19.8 min
[2]; 80 μg/day sc, Day 1, n = 8, mean ± SD
  AUC(0–∞): 64.2 ± 56.1 ng·h/mL
[2]; 80 μg/day sc, Day 1, n = 8, plasma
  Cmax: 124 ± 105 ng/mL
[2]; after 14 consecutive daily administrations, day 14 vs day 1
  accumulation in plasma: absence of accumulation
[2]; human, plasma, sc, 10 μg/day, 10 μg/day sc, Day 1, n = 4, median, read-out: Tmax
  Tmax: 19.8 min
[2]; human, plasma, sc, 10 μg/day, 10 μg/day sc, Day 14, n = 4, median, read-out: Tmax
  Tmax: 5.4 min
[2]; human, plasma, sc, 20 μg/day, 20 μg/day sc, Day 1, n = 8, median, read-out: Tmax
  Tmax: 7.8 min
[2]; human, plasma, sc, 20 μg/day, 20 μg/day sc, Day 14, n = 7, median, read-out: Tmax
  Tmax: 10.2 min
[2]; human, plasma, sc, 40 μg/day, 40 μg/day sc, Day 1, n = 8, median, read-out: Tmax
  Tmax: 10.2 min
[2]; human, plasma, sc, 60 μg/day, 60 μg/day sc, Day 1, n = 8, median, read-out: Tmax
  Tmax: 19.8 min
[2]; human, plasma, sc, 80 μg/day, 80 μg/day sc, Day 1, n = 8, median, read-out: Tmax
  Tmax: 10.2 min
[2]; human, plasma, sc, 80 μg/day, 80 μg/day sc, Day 14, n = 8, median, read-out: Tmax
  Tmax: 10.8 min
[2]; human, plasma, 10 μg/day sc, Day 14, n = 4, mean ± SD
  AUC(0-inf): 2.02 ± 2.41 ng·h/mL
[2]; human, plasma, 20 μg/day sc, Day 14, n = 7, mean ± SD
  AUC(0-inf): 4.63 ± 3.29 ng·h/mL
[2]; human, plasma, 40 μg/day sc, Day 14, n = 8, mean ± SD
  AUC(0-inf): 12.5 ± 4.75 ng·h/mL
[2]; human, plasma, 60 μg/day sc, Day 14, n = 7, mean ± SD
  AUC(0-inf): 58.8 ± 30.3 ng·h/mL
[2]; human, plasma, 80 μg/day sc, Day 14, n = 8, mean ± SD
  AUC(0-inf): 51.9 ± 51.6 ng·h/mL
[2]; human, 20 μg/day sc, Day 14, n = 7, plasma, read-out: Cmax
  Cmax: 18.3 ± 6.78 ng/mL
[2]; human, 40 μg/day sc, Day 14, n = 8, plasma, read-out: Cmax
  Cmax: 23.6 ± 5.5 ng/mL
[2]; human, 60 μg/day sc, Day 14, n = 7, plasma, read-out: Cmax
  Cmax: 44.9 ± 17.9 ng/mL
[2]; human, 80 μg/day sc, Day 14, n = 8, plasma, read-out: Cmax
  Cmax: 63.5 ± 28.3 ng/mL
[3]
  vomiting, subjects: none
[3]; single sc 5 μg, n = 3
  Catheter site haematoma, subjects with TEAE: 0
  Decreased appetite, subjects with TEAE: 0
  Fatigue, subjects with TEAE: 0
  Headache, subjects with TEAE: 1
  Injection site erythema, subjects with TEAE: 0
  Injection site pain, subjects with TEAE: 0
  Nausea, subjects with TEAE: 0
  Somnolence, subjects with TEAE: 0
[3]; single sc 10 μg, n = 6
  Catheter site haematoma, subjects with TEAE: 1
  Decreased appetite, subjects with TEAE: 0
  Fatigue, subjects with TEAE: 1
  Headache, subjects with TEAE: 1
  Injection site erythema, subjects with TEAE: 0
  Injection site pain, subjects with TEAE: 0
  Nausea, subjects with TEAE: 0
  Somnolence, subjects with TEAE: 0
[3]; single sc 20 μg, n = 6
  Catheter site haematoma, subjects with TEAE: 0
  Decreased appetite, subjects with TEAE: 1
  Fatigue, subjects with TEAE: 1
  Headache, subjects with TEAE: 1
  Injection site erythema, subjects with TEAE: 0
  Injection site pain, subjects with TEAE: 1
  Nausea, subjects with TEAE: 0
  Somnolence, subjects with TEAE: 0
[3]; single sc 40 μg, n = 6
  Catheter site haematoma, subjects with TEAE: 0
  Decreased appetite, subjects with TEAE: 0
  Fatigue, subjects with TEAE: 0
  Headache, subjects with TEAE: 0
  Injection site erythema, subjects with TEAE: 0
  Injection site pain, subjects with TEAE: 0
  Nausea, subjects with TEAE: 0
  Somnolence, subjects with TEAE: 0
[3]; single sc 60 μg, n = 6
  Catheter site haematoma, subjects with TEAE: 0
  Decreased appetite, subjects with TEAE: 0
  Fatigue, subjects with TEAE: 1
  Headache, subjects with TEAE: 0
  Injection site erythema, subjects with TEAE: 0
  Injection site pain, subjects with TEAE: 0
  Nausea, subjects with TEAE: 1
  Somnolence, subjects with TEAE: 0
[3]; single sc 90 μg, n = 6
  Catheter site haematoma, subjects with TEAE: 1
  Decreased appetite, subjects with TEAE: 2
  Fatigue, subjects with TEAE: 0
  Headache, subjects with TEAE: 2
  Injection site erythema, subjects with TEAE: 2
  Injection site pain, subjects with TEAE: 2
  Nausea, subjects with TEAE: 3
  Somnolence, subjects with TEAE: 1
[3]; single sc 120 μg, n = 6
  Catheter site haematoma, subjects with TEAE: 1
  Decreased appetite, subjects with TEAE: 3
  Fatigue, subjects with TEAE: 0
  Headache, subjects with TEAE: 3
  Injection site erythema, subjects with TEAE: 0
  Injection site pain, subjects with TEAE: 0
  Nausea, subjects with TEAE: 4
  Somnolence, subjects with TEAE: 4
[3]; total eneboparatide, n = 39
  Catheter site haematoma, subjects with TEAE: 3 (7.7) n (%)
  Decreased appetite, subjects with TEAE: 6 (15.4) n (%)
  Fatigue, subjects with TEAE: 3 (7.7) n (%)
  Headache, subjects with TEAE: 8 (20.5) n (%)
  Injection site erythema, subjects with TEAE: 2 (5.1) n (%)
  Injection site pain, subjects with TEAE: 3 (7.7) n (%)
  Nausea, subjects with TEAE: 8 (20.5) n (%)
  Somnolence, subjects with TEAE: 5 (12.8) n (%)
[3]; transient, at 60, 90 and 120 μg
  nausea, subjects: eight
[4]
  serum calcium, urinary calcium excretion and bone resorption biomarkers: robust and sustained increases in serum calcium without increasing urinary calcium excretion or bone resorption biomarkers
[5]
  tolerability and independence from conventional therapy: well-tolerated and allowed independence from conventional therapy
